Counter-ions that a name gives are not always drawn. Like-named read-outs stand apart in the source and are kept apart here.

This is an account of results in patent publication EP2030621A1, “Novel substituted pyrimidines as cysteine protease inhibitors” (GLAXO GROUP LIMITED, priority 2007, dated 2009).

The subject of the experiment is Plasmodium falciparum parasite. Nature of the experiment: Whole cell assay: whole cell activity against the parasite. It is filed as cell-based. From the text: Compounds can be evaluated for whole cell actvity against the Plasmadium falciparum parasite according to the procedure described in Sijwali S. and Rosenthal P. J., (2004) Proceedings of the National Academy of Sciences of the United States of America (PNAS) 101(13), 4384-4389 (see in particular "Measurement of Parasite Growth rates and Inhibitor Sensitivity" on page 4385); IC50 values can be calculated as described in Singh A. and Rosenthal P. J., (2001) Antimicrobial Agents and Chemotherapy 45(3), 949-951 (see in particular page 950, first column); synchronised parasites can be prepared as described in Divo A. A. et al., (1985) Protozool. 32, 59-64. 3) In vitro models to evaluate activity against bone metastasis

Regarding `CN1CCC(CN2CCN(Cc3ccc(C(=O)NN(c4nc(C#N)ncc4Br)C4CCOCC4)cc3)CC2)CC1` [Example 30, N'-(5-Bromo-2-cyano-4-pyrimidiny)-4-({4-[(1-methyl-4-piperidinyl)methyl]-1-piperazinyl}methyl)-N'-(tetrahydro-2H-pyran-4-yl)benzohydrazide trifluoroacetate], the IC50 (Plasmodium falciparum) lay within 0.015 to 0.15 µM. `CN1CCCC(CN2CCN(Cc3ccc(C(=O)NN(c4nc(C#N)ncc4Br)C4CCOCC4)cc3)CC2)C1` (stereo not drawn) [Example 31, N'-(5-Bromo-2-cyano-4-pyrimidinyl)-4-({4-[(1-methyl-3-pipendinyl)methyl]-1-piperazinyl}methyl)-N'-(tetrahydro-2H-pyran-4-yl)benzohydrazide trifluoroacetate] registered an IC50 (Plasmodium falciparum) of 0.015 to 0.15 µM. The compound `CN1CCN(C(=O)C2CCN(Cc3ccc(C(=O)NN(c4nc(C#N)ncc4Br)C4CCOCC4)cc3)CC2)CC1` [Example 32, N'-(5-Bromo-2-cyano-4-pyrimidinyl)-4-({4-[(4-methyl-1-piperazinyl)carbonyl]-1-piperidinyl}methyl)-N'-(tetrahydro-2H-pyran-4-yl)benzohydrazide trifluoroacetate] came in with an IC50 (Plasmodium falciparum) of 0.015 to 0.15 µM. `N#Cc1ncc(Br)c(N(NC(=O)c2ccc(CN3CC(N4CCCC4)C3)cc2)C2CCOCC2)n1` [Example 33, N'-(5-bromo-2-cyano-4-pyrimidinyl)-4-{[3-(1-pyrrolidinyl)-1-azetidinyl]methyl}-N'-(tetrahydro-2H-pyran-4-yl)benzohydrazide trifluoroacetate] returned an IC50 (Plasmodium falciparum) of 0.015 to 0.15 µM. As for `CN1CCN(C2CCN(Cc3ccc(C(=O)NN(c4nc(C#N)ncc4Cl)C4CCOCC4)cc3)CC2)CC1` [Example 34, N'-(5-Chloro-2-cyano-4-pyrimidinyl)-4-{[4-(4-methyl-1-piperazinyl)-1-piperidinyl]methyl}-N'-(tetrahydro-2H-pyran-4-yl)benzohydrazide trifluoroacetate], the IC50 (Plasmodium falciparum) lay within 0.0025 to 0.015 µM. Take `CN1CCC(CN2CCN(Cc3ccc(C(=O)NN(c4nc(C#N)ncc4Cl)C4CCOCC4)cc3)CC2)CC1` [Example 35, N'-(5-Chloro-2-cyano-4-pyrimidinyl)-4-({4-[(1-methyl-4-piperidiny)methyl]-1-piperazinyl}methyl)-N'-(tetrahydro-2H-pyran-4-yl)benzohydrazide trifluoroacetate]: the IC50 (Plasmodium falciparum) was 0.015 to 0.15 µM. In turn, `CN1CCN(C2CCN(Cc3ccc(C(=O)NN(c4nc(C#N)ncc4Cl)C4CCCCC4)cc3)CC2)CC1` [Example 40, N'-(5-chloro-2-cyano-4-pyrimidinyl)-N'-cyclohexyl-4-{[4-(4-methyl-1-piperazinyl)-1-piperidinyl]methyl}benzohydrazide] came in with an IC50 of 0.0025 to 0.015 µM. Compound `CN1CCN(C2CCN(Cc3ccc(C(=O)NN(c4nc(C#N)ncc4Cl)C4CCCCC4)cc3)CC2)CC1` [Example 41, N'-(5-chloro-2-cyano-4-pyrimidinyl)-N'-cyclohexyl-4-{[4-(4-methyl-1-piperazinyl)-1-piperidinyl]methyl}benzohydrazide dihydrochloride] yielded an IC50 (dihydrochloride) of 0.001 to 0.0025 µM. In turn, `CN1CCN(Cc2ccc(-c3ccc(C(=O)NN(c4nc(C#N)ncc4Br)C4CCCCC4)cn3)cc2)CC1` [Example 44, N'-(5-bromo-2-cyano-4-pyrimidinyl)-N'-cyclohexyl-6-{4-[(4-methyl-1-piperazinyl)methyl]phenyl}-3-pyridinecarbohydrazide trifluoroacetate] returned an IC50 (Plasmodium falciparum) of 0.015 to 0.15 µM. The compound `CN1CCN(Cc2ccc(-c3cncc(C(=O)NN(c4nc(C#N)ncc4Br)C4CCCC4)c3)cc2)CC1` [Example 45, N'-(5-bromo-2-cyano-4-pyrimidinyl)-N'-cyclopentyl-5-{4-[(4-methyl-1-piperazinyl)methyl]phenyl}-3-pyridinecarbohydrazide trifluoroacetate] showed an IC50 (Plasmodium falciparum) of 0.015 to 0.15 µM. In turn, `CN1CCN(Cc2ccc(-c3ccc(C(=O)NN(c4nc(C#N)ncc4Br)C4CCCC4)cn3)cc2)CC1` [Example 46, N'-(5-bromo-2-cyano-4-pyrimidinyl)-N'-cyclopentyl-6-{4-[(4-methyl-1-piperazinyl)methyl]phenyl}-3-pyridinecarbohydrazide trifluoroacetate] showed an IC50 (Plasmodium falciparum) of 0.0025 to 0.015 µM. `CN1CCN(Cc2cccc(-c3cncc(C(=O)NN(c4nc(C#N)ncc4Br)C4CCCCC4)c3)c2)CC1` [Example 47, N'-(5-bromo-2-cyano-4-pyrimidinyl)-N'-cyclohexyl-5-{3-[(4-methyl-1-piperazinyl)methyl]phenyl}-3-pyridinecarbohydrazide trifluoroacetate] showed an IC50 (Plasmodium falciparum) of 0.0025 to 0.015 µM. On to `CN1CCN(C2CCN(Cc3ccc(C(=O)NN(c4nc(C#N)ncc4Br)C4CCN(C(=O)OCc5ccccc5)CC4)cc3)CC2)CC1` [Example 48, Phenylmethyl 4-{1-(5-bromo-2-cyano-4-pyrimidinyl)-2-[(4-{[4-(4-methyl-1-piperazinyl)-1-piperidinyl]methyl}phenyl)carbonyl]hydrazino}-1-piperidinecarboxylate triflouroacetate], for which, where the note is “Plasmodium falciparum”, the IC50 is 0.015 to 0.15 µM. `CC(=O)N1CCC(N(NC(=O)c2ccc(CN3CCC(C(=O)N4CCN(C)CC4)CC3)cc2)c2nc(C#N)ncc2Br)CC1` [Example 49, N'-(1-acetyl-4-piperidinyl)-N'-(5-bromo-2-cyano-4-pyrimidinyl)-4-({4-[(4-methyl-1-piperazinyl)carbonyl]-1-piperidinyl}methyl)benzohydrazide trifluoroacetate] gave an IC50 (Plasmodium falciparum) of 0.015 to 0.15 µM.

For the setting “Plasmodium falciparum”, `CN1CCN(Cc2ccc(C(=O)NN(c3nc(C#N)ncc3Cl)C3CCCCC3)cc2)CC1` [Example 51, N'-(5-chloro-2-cyano-4-pyrimidinyl)-N'-cyclohexyl-4-[(4-methyl-1-piperazinyl)methyl]benzohydrazide trifluoroacetate] displayed an IC50 of 0.015 to 0.15 µM. Still for that read-out and setting: the value for `CN1CCN(c2ccc(C(=O)NN(c3nc(C#N)ncc3Cl)C3CCCC3)cc2)CC1` [Example 52, N'-(5-chloro-2-cyano-4-pyrimidinyl)-N'-cyclopentyl-4-(4-methyl-1-piperazinyl)benzohydrazide trifluoroacetate] was 0.015 to 0.15 µM; that for `CN(Cc1ccc(C(=O)NN(c2nc(C#N)ncc2Cl)C2CCCC2)cc1)C1CCCCC1` [Example 53, N'-(5-chloro-2-cyano-4-pyrimidinyl)-4-{[cyclohexyl(methyl)amino]methyl}-N'-cyclopentylbenzohydrazide trifluoroacetate] was 0.0025 to 0.015 µM. Compound `CN(C)Cc1ccc(C(=O)NN(c2nc(C#N)ncc2Cl)C2CCCC2)cc1` [Example 54, N'-(5-chloro-2-cyano-4-pyrimidinyl)-N'-cyclopentyl-4-[(dimethylamino)methyl]benzohydrazide trifluoroacetate] returned an IC50 (Plasmodium falciparum) of 0.015 to 0.15 µM. The same measure, in the same setting: the value for `CCCN(C)Cc1ccc(C(=O)NN(c2nc(C#N)ncc2Cl)C2CCCC2)cc1` [Example 55, N'-(5-chloro-2-cyano-4-pyrlmidinyl)-N'-cycyopentyl-4-{[methyl(propyl)amino]methyl}benzohydrazide trifluoroacetate] was 0.015 to 0.15 µM; that for `CCCCCCN(C)Cc1ccc(C(=O)NN(c2nc(C#N)ncc2Cl)C2CCCC2)cc1` [Example 56, N'-(5-chloro-2-cyano-4-pyrimidinyl)-N'-cyclopentyl-4-{[hexyl(methyl)amino]methyl}benzohydrazide trifluoroacetate] was 0.015 to 0.15 µM; that for `CCCCN(C)Cc1ccc(C(=O)NN(c2nc(C#N)ncc2Cl)C2CCCC2)cc1` [Example 57, 4-{[butyl(methyl)amino]methyl}-N'-(5-chloro-2-cyano-4-pyrimidinyl)-N'-cyclopentylbenzohydrazide trifluoroacetate] was 0.015 to 0.15 µM. For `CN(CCO)Cc1ccc(C(=O)NN(c2nc(C#N)ncc2Cl)C2CCCC2)cc1` [Example 58, N'-(5-chloro-2-cyano-4-pyrimidinyl)-N'-cyclopentyl-4-{[(2-hydroxyethy)(methyl)amino]methyl}benzohydrazide trifluoroacetate], under “Plasmodium falciparum”, the IC50 was 0.015 to 0.15 µM. `CN(CCC(O)c1ccccc1)Cc1ccc(C(=O)NN(c2nc(C#N)ncc2Cl)C2CCCC2)cc1` (stereo not drawn) [Example 59, N'-(5-chloro-2-cyano-4-pyrimidinyl)-N'-cyclopentyl-4-{[(3-hydroxy-3-phenylpropyl)(methyl)amino]methyl}benzohydrazide trifluoroacetate] showed an IC50 (Plasmodium falciparum) of 0.015 to 0.15 µM. As to `CN(CC(=O)N(C)C)Cc1ccc(C(=O)NN(c2nc(C#N)ncc2Cl)C2CCCC2)cc1` [Example 60, N^2-[(4-{[2-(5-chloro-2-cyano-4-pyrimidinyl)-2-cyclopentylhydrazino]carbonyl}phenyl)methyl]-N^1,N^1,N^2-trimethylglycinamide trifluoroacetate], the IC50 (Plasmodium falciparum) was 0.015 to 0.15 µM. As to `CN(CCC1OCCO1)Cc1ccc(C(=O)NN(c2nc(C#N)ncc2Cl)C2CCCC2)cc1` [Example 61, N'-(5-chloro-2-cyano-4-pyrimidinyl)-N'-cyclopentyl-4-{[[2-(1,3-dioxolan-2-yl)ethyl](methyl)amino]methyl}benzohydrazide trifluoroacetate], the concentration for half-maximal inhibition (IC50) (Plasmodium falciparum) is 0.015 to 0.15 µM. In the case of `CN(CCc1ccccc1)Cc1ccc(C(=O)NN(c2nc(C#N)ncc2Cl)C2CCCC2)cc1` [Example 62, N'-(5-chloro-2-cyano-4-pyrimidinyl)-N'-cyclopentyl-4-{[methyl(2-phenylethyl)amino]methyl}benzohydrazide trifluoroacetate], the IC50 (Plasmodium falciparum) is 0.015 to 0.15 µM. `CN(CCCc1ccccc1)Cc1ccc(C(=O)NN(c2nc(C#N)ncc2Cl)C2CCCC2)cc1` [Example 64, N'-(5-chloro-2-cyano-4-pyrimidinyl)-N'-cyclopentyl-4-{[methyl(3-phenylpropyl)amino]methyl}benzohydrazide trifluoroacetate] gave an IC50 (Plasmodium falciparum) of 0.015 to 0.15 µM.
